Nine compounds from PubChem BioAssay (NCI) can be followed below.

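48-hour exposure; five concentrations; linearly interpolated endpoints. TGI marks complete inhibition of growth.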 Bounds are passed on as bounds.

Some test systems named below: A549 NSCLC; COLO 205 colon; EKVX NSCLC; HCT-15 colon; IGROV1 ovarian; M14 melanoma; MALME-3M melanoma; NCI-H460 lung; OVCAR-5 ovarian; SF-295 CNS; SK-MEL-28 melanoma; SNB-75 CNS; SW-620 colon; U251 CNS; UACC-257 melanoma; DU-145 prostate; MDA-MB-435; RXF 393 renal; HOP-92 NSCLC.
Assay in all cases: NCI tumour cell line growth inhibition, 48 h

In the case of `CCN(CC)CC1CCCCCCCCCCC1=O` (stereo not drawn), the TGI with A549 NSCLC, in the assay on COLO 205 colon, in the assay with EKVX NSCLC, in the assay on HCT-15 colon, with IGROV1 ovarian and in the assay with M14 melanoma was more than 100 µM throughout. In addition, the TGI in the assay with MALME-3M melanoma, in the assay with NCI-H460 lung, with OVCAR-5 ovarian, in the assay with SF-295 CNS, in the assay on SK-MEL-28 melanoma and in the assay with SNB-75 CNS was more than 100 µM in each case. In addition, the TGI in the assay with SW-620 colon, with U251 CNS and in the assay on UACC-257 melanoma was more than 100 µM each time.

In the case of `CS(=O)(=O)O[C@H]1CN2C[C@@H](O)[C@@H](O)[C@H]2[C@H]1CO`, the TGI with A549 NSCLC, in the assay on COLO 205 colon, in the assay with DU-145 prostate, in the assay on EKVX NSCLC, in the assay on HCT-15 colon and in the assay with IGROV1 ovarian was more than 100 µM each time. Further, the TGI in the assay with M14 melanoma, with MALME-3M melanoma, in the assay on MDA-MB-435, with NCI-H460 lung, with OVCAR-5 ovarian and with RXF 393 renal was more than 100 µM throughout. Further, the TGI in the assay with SF-295 CNS, in the assay on SK-MEL-28 melanoma, in the assay with SW-620 colon, with U251 CNS and in the assay on UACC-257 melanoma was more than 100 µM in each case.

Regarding `NC1CC(=O)c2c(Br)csc21` (stereo not drawn), the TGI with A549 NSCLC, in the assay with COLO 205 colon, in the assay with DU-145 prostate, in the assay with EKVX NSCLC, with HCT-15 colon and in the assay on IGROV1 ovarian was more than 100 µM in each case. Further, the TGI in the assay with M14 melanoma was more than 100 µM; with MALME-3M melanoma it was more than 100 µM; in the assay on MDA-MB-435 it was 66.3 µM; in the assay on NCI-H460 lung it was more than 100 µM; in the assay with OVCAR-5 ovarian it was more than 100 µM; with RXF 393 renal, more than 100 µM. Besides, the TGI in the assay with SK-MEL-28 melanoma is 79.9 µM; with SNB-75 CNS it was more than 100 µM; in the assay with SW-620 colon it was 77.7 µM; with U251 CNS, 53.1 µM; in the assay with UACC-257 melanoma, more than 100 µM.

`COc1cccc2c1OC(c1ccc(Cl)cc1)C([N+](=O)[O-])=C2` (stereo not drawn): the TGI in the assay on A549 NSCLC is 22.5 µM; in the assay with COLO 205 colon it was 5.74 µM; in the assay with DU-145 prostate, 13.2 µM; in the assay on EKVX NSCLC, 24.2 µM; with HCT-15 colon it was 10.8 µM; in the assay on IGROV1 ovarian, 9.19 µM. Moreover, the TGI came out at 2.57 µM in the assay on M14 melanoma; 5.32 µM in the assay on MALME-3M melanoma; 8.68 µM in the assay on MDA-MB-435; 4.92 µM in the assay on NCI-H460 lung; 7.84 µM in the assay on OVCAR-5 ovarian; 3.32 µM in the assay on RXF 393 renal. Besides, the TGI was found to be 13.4 µM in the assay with SF-295 CNS, 7.19 µM in the assay on SK-MEL-28 melanoma, 5.77 µM in the assay with U251 CNS and 8.39 µM in the assay with UACC-257 melanoma.

`COc1ccc(N2C(=O)CC(C3CC(C(C)(C)C)CCC3=O)C2=O)cc1` (stereo not drawn): the TGI in the assay with A549 NSCLC, with COLO 205 colon, in the assay with DU-145 prostate, in the assay with EKVX NSCLC, with HCT-15 colon and with IGROV1 ovarian was more than 100 µM each time. Further, the TGI in the assay on M14 melanoma, with MDA-MB-435, in the assay on NCI-H460 lung, in the assay with RXF 393 renal, in the assay with SK-MEL-28 melanoma and in the assay with SNB-75 CNS was more than 100 µM throughout. Besides, the TGI in the assay on SW-620 colon, in the assay on U251 CNS and in the assay with UACC-257 melanoma was more than 100 µM each time.

On to `CCc1cc2c(oc3cc4ccccc4cc32)c(=O)[nH]1`, for which the TGI with A549 NSCLC, in the assay on DU-145 prostate, with EKVX NSCLC, in the assay on HCT-15 colon, with HOP-92 NSCLC and in the assay with IGROV1 ovarian was more than 10 µM each time. Moreover, the TGI in the assay with M14 melanoma, with MALME-3M melanoma, in the assay with NCI-H460 lung, with OVCAR-5 ovarian, in the assay on RXF 393 renal and in the assay on SF-295 CNS was more than 10 µM in each case. Moreover, the TGI with SNB-75 CNS, with SW-620 colon and in the assay on UACC-257 melanoma was more than 10 µM in each case.

For the compound `O=C(O)c1ccc(N=C(C(=Nc2ccc(C(=O)O)cc2)c2ccccc2)c2ccccc2)cc1`, the TGI in the assay with A549 NSCLC, with COLO 205 colon, in the assay with DU-145 prostate, in the assay with EKVX NSCLC, in the assay on HCT-15 colon and with IGROV1 ovarian was more than 100 µM in each case. Besides, the TGI with M14 melanoma, with MDA-MB-435, with NCI-H460 lung, in the assay with OVCAR-5 ovarian, in the assay on RXF 393 renal and in the assay on SF-295 CNS was more than 100 µM in each case. Further, the TGI in the assay on SK-MEL-28 melanoma, in the assay on SNB-75 CNS, with SW-620 colon, in the assay with U251 CNS and in the assay on UACC-257 melanoma was more than 100 µM each time.

Consider `CC(C)(C)[Si](C)(C)OCC1OC(n2ccc(N)nc2=O)C(O[Si](C)(C)C(C)(C)C)C1O[Si](C)(C)C(C)(C)C` (stereo not drawn), for which the TGI with A549 NSCLC worked out at 11.6 µM; in the assay with COLO 205 colon it was 9.84 µM; with DU-145 prostate, 23.7 µM; in the assay on EKVX NSCLC, 9.83 µM; with HCT-15 colon, 5.25 µM; with HOP-92 NSCLC, 4.71 µM. Further, the TGI turned out to be 3.94 µM in the assay with IGROV1 ovarian; 3.24 µM with M14 melanoma; 4.11 µM with MALME-3M melanoma; 3.7 µM with NCI-H460 lung; 3.58 µM in the assay with OVCAR-5 ovarian; 3.75 µM with SF-295 CNS. The TGI in the assay on SNB-75 CNS was determined as 14.2 µM; in the assay on SW-620 colon it was 2.93 µM; with UACC-257 melanoma, 10.4 µM.

With `CCOC(=O)C1(C#N)C(c2ccccc2)CC(O)(c2ccc(OC)cc2)C(C(=O)c2ccc(OC)cc2)C1c1ccccc1` (stereo not drawn), the TGI in the assay with A549 NSCLC, with COLO 205 colon, in the assay with EKVX NSCLC, with HCT-15 colon, with IGROV1 ovarian and with M14 melanoma was more than 100 µM in each case. In addition, the TGI in the assay with MALME-3M melanoma, in the assay on NCI-H460 lung, in the assay on OVCAR-5 ovarian, in the assay with RXF 393 renal, with SF-295 CNS and in the assay with SK-MEL-28 melanoma was more than 100 µM each time. The TGI is 95.3 µM in the assay on SNB-75 CNS, more than 100 µM in the assay with SW-620 colon, more than 100 µM with U251 CNS and more than 100 µM in the assay with UACC-257 melanoma.
